What was measured:
WI-38 cells [1] = experiment: Clonogenic assay, radioprotection of WI-38 cells against γ-irradiation; format: cell-based, human; details: WI-38 cells pretreated 24 h with 0.5 μM drug, γ-irradiation 2-12 Gy, clonogenic assay
Experimental: Further, clonogenic assay is considered as the gold standard method for evaluating the anticancer activity of any compound and is also a good indicator of the in vivo efficacy of any anticancer compound. Therefore, the therapeutic index of DSePA and D-DSePA in A549/WI-38 cells was also validated by employing the clonogenic assay. For this, A549/WI-38 cells were treated with the varying concentrations (0.1-2 μM)/(1-500 μM) of DSePA/D-DSePA for seven days and the survival fraction was calculated by counting the number of surviving clones (FIG. 11A). The plot of survival fraction verses the concentration of DScPA/D-DSCPA was used to estimate the IC50 of above compounds to inhibit the growth of A549/WI-38 cells. […] This clearly confirmed that deuteration of DScPA reduced its toxicity in normal cells without compromising its efficacy in cancer cells. Since anticancer agents are intended to be used in combination with radiation, DSePA/D-DSePA at a treatment concentration of 0.5 μM (dose close to IC50 as determined by clonogenic assay) was combined with varying absorbed doses (2-8 Gy) of γ-irradiation and the effect of combinatorial treatment on the viability of A549 cells was determined by clonogenic assay (FIG. 12A & 12B). For this, A549 cells exposed to the varying absorbed doses (2-8 Gy) of γ-radiation were immediately treated with DScPA/D-DScPA and cultured for seven days prior to clonogenic assay. […] The D10 value of the combinatorial treatment involving DScPA estimated was 4.5 Gy (FIG. 12B). […]
(§1) Clonogenic assay—Clonogenic assay was performed according to the method reported previously. […] After 7 days, colonies were fixed with absolute methanol for 5 min, stained with 0.5% crystal violet for 5 min, washed with distilled water to remove excess stain and counted manually under a stereo microscope. […] The plating efficiency and the survival fraction under irradiated and drug treated conditions were calculated using following formulae: […]
(§2) The plating efficiency of A549 and WI38 cells was calculated by seeding ˜300 and ˜500 cells respectively. […]

WI-38 cells [2] = experiment: Clonogenic assay in WI-38 cells; format: cell-based, human; details: Homo sapiens, 168 h, seven days treatment, read-out: IC50 to inhibit growth (survival fraction)
Experimental: Further, clonogenic assay is considered as the gold standard method for evaluating the anticancer activity of any compound and is also a good indicator of the in vivo efficacy of any anticancer compound. Therefore, the therapeutic index of DSePA and D-DSePA in A549/WI-38 cells was also validated by employing the clonogenic assay. For this, A549/WI-38 cells were treated with the varying concentrations (0.1-2 μM)/(1-500 μM) of DSePA/D-DSePA for seven days and the survival fraction was calculated by counting the number of surviving clones (FIG. 11A). The plot of survival fraction verses the concentration of DScPA/D-DSCPA was used to estimate the IC50 of above compounds to inhibit the growth of A549/WI-38 cells. […] This clearly confirmed that deuteration of DScPA reduced its toxicity in normal cells without compromising its efficacy in cancer cells. […]
as §1, §2

Question: `O=C(O)CC[Se][Se]CCC(=O)O` [DSePA, 3,3′-diselenodipropionic acid] was tested. Which “dose modification factor (DMF, D10 of radiation plus drug / D10 of radiation alone)” value (WI-38 cells [1]) did it give?
Answer: The value was 1.12±0.03.

Question: And the IC50 (WI-38 cells [2])?
Answer: Its IC50 is 17.9 ± 0.01 µM.

— US20240208901A1, “Deuterated 3,3'-Diselenodipropionic Acid (DSePA) and Its Use as an Anticancer or Radioprotective Agent” (Secretary, Department of Atomic Energy, priority 2022, published 2024)
